According to patent publication US9023789B2, “Amylin analogs and pharmaceutical compositions thereof” (Novo Nordisk A/S, priority 2012, dated 2015):
pIC50: −log10 of the molar value. ≈ marks a conversion by molar mass, not a printed value. Where two headings read alike, the source gives them in different places. Values belong to the compound of their own block, whether it stands above or below them. Numbered stars: 1 amine (or outer) side, 2 acyl side, 3 side chain; on linkers, the order of the positions; unused ones are H or OH. Bridge positions count the residues as written; N and C are the ends. Side chains are listed from the residue outwards. Peptide text beside a SMILES is read from it. * marks the point of attachment. C20 diacid = O=C(O)CCCCCCCCCCCCCCCCCCC(=O)*; γGlu = O=C(O)[C@H](CCC(=O)[*:2])N[*:1]; AEEA = NCCOCCOCC(=O)O

Assays:
[1] = target: T1, human amylin 3(a) receptor (human calcitonin receptor + RAMP-3) in BHK570 cells (Homo sapiens, UniProt O60896+P30988); assay: ASSAY (II)a functional assay, human amylin receptor (CRE luciferase); format: cell-based
T1 construct: expressed in transfected cells
Summary of the method: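 Functional agonism was measured by CRE-luciferase reporter luminescence in BHK cells bearing calcitonin receptor, or calcitonin receptor plus RAMP-3 as the amylin 3(a) receptor. Stimulation lasted 3 hours at 37° C.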

[2] = ASSAY (IV) determination of solubility; format: physicochemical
Summary of the method: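 UPLC read-out of polypeptide concentration after centrifugation. Samples: aqueous polypeptide stock ([…]) + 100 mM buffer 1:1, glycylglycine pH 3.0–5.0 or bistrispropane pH 6.0–8.0; 18 h, RT.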

[3] = target: T2, rat amylin receptor (rat calcitonin receptor + rat RAMP 3) (Rattus norvegicus, UniProt P32214+Q9JJ73); assay: ASSAY (VI) binding to the rat amylin receptor
T2 construct: expressed in transfected cells; host or cells: BHK tk'ts 13 (transient, FuGENE 6), membranes
T2 sequence (P32214 25-479 isoform P32214-2 limits assumed): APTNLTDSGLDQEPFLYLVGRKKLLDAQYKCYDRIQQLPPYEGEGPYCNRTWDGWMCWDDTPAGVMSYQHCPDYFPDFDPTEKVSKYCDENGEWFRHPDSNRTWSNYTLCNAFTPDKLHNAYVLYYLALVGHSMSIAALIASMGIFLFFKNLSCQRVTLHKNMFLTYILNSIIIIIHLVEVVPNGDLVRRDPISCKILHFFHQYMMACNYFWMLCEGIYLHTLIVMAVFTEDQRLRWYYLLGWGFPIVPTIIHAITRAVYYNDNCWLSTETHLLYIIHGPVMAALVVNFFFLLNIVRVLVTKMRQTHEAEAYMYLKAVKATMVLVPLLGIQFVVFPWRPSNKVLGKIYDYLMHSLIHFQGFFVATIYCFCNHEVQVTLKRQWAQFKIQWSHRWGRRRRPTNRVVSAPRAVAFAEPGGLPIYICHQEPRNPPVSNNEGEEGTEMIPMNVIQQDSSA
T2 sequence (Q9JJ73 23-147 partner): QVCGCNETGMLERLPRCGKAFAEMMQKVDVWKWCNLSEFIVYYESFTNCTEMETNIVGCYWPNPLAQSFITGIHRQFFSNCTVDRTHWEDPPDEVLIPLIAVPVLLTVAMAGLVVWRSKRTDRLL
Summary of the method: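 The cell-membrane assay assessed binding at the rat amylin receptor. BHK tk′ts 13 cells were transfected transiently with rat calcitonin receptor, with FuGENE® 6 (Roche) as the transfection reagent, used per the manufacturer's recommendations. Approximately 48 hours after transfection the cells were harvested, and membranes were prepared for measuring binding.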

rat calcitonin receptor = target: T3, rat calcitonin receptor (Rattus norvegicus, UniProt P32214); assay: ASSAY (VIII) binding to the rat calcitonin receptor; conditions: Table 7, read-out: rCTR bind IC50
T3 construct: expressed in transfected cells; host or cells: BHK tk'ts 13 (transient, FuGENE 6), membranes
T3 sequence (P32214 25-479 isoform P32214-2 limits assumed): T2 sequence (P32214 25-479 isoform P32214-2 limits assumed)
Summary of the method: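 Receptor source: membranes from transiently transfected BHK tk′ts 13 cells expressing rat calcitonin receptor, collected roughly 48 hours after transfection.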

[4] = hCTR funct. EC50 divided by hAmylin-R funct. EC50
[5] = hCTR funct. EC50 over hAmylin-R funct. EC50
[6] = human functional selectivity: hCTR funct. EC50 / hAmylin-R funct. EC50
[7] = Table 7, rat binding selectivity, rCTR IC50 / rAmylin-R IC50
[8] = Table 7a (preferred compounds), rat binding selectivity, rCTR IC50 / rAmylin-R IC50
[9] = ratio of rCTR bind IC50 to rAmylin-R bind IC50

T1 sequence (O60896 24-148): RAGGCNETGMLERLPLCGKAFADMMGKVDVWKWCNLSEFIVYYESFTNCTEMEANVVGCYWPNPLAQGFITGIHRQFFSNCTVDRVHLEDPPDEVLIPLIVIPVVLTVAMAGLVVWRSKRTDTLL
T1 sequence (P30988 25-474): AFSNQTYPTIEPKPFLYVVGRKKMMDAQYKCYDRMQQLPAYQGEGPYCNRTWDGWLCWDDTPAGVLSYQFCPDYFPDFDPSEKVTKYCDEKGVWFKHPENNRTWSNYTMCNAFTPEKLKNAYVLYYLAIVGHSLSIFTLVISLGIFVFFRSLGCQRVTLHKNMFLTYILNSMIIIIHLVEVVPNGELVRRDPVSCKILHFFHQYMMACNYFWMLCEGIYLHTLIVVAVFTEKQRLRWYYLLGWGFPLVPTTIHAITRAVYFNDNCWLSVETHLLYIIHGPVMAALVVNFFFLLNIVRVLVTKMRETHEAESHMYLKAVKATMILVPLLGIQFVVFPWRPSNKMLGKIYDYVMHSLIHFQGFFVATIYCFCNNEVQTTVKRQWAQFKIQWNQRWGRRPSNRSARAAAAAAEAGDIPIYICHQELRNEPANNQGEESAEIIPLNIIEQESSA

SMILES: CC[C@H](C)[C@H](NC(=O)[C@H](C)NC(=O)CNC(=O)[C@H](Cc1ccccc1)NC(=O)[C@H](CC(N)=O)NC(=O)[C@@H]1CCCN1C(=O)[C@H](CO)NC(=O)[C@H](CO)NC(=O)[C@H](Cc1c[nH]cn1)NC(=O)[C@H](CCCNC(=N)N)NC(=O)[C@H](CC(C)C)NC(=O)[C@H](Cc1ccccc1)NC(=O)[C@H](CO)NC(=O)[C@H](C)NC(=O)[C@H](CC(C)C)NC(=O)[C@H](CCCNC(=N)N)NC(=O)[C@H](CCC(N)=O)NC(=O)[C@@H](NC(=O)[C@H](C)NC(=O)[C@@H]1CSSC[C@H](NC(=O)[C@@H](N)CCCCNC(=O)COCCOCCNC(=O)CC[C@H](NC(=O)CCCCCCCCCCCCCCCCCCC(=O)O)C(=O)O)C(=O)N[C@@H](CC(N)=O)C(=O)N[C@@H]([C@@H](C)O)C(=O)N[C@@H](C)C(=O)N[C@@H]([C@@H](C)O)C(=O)N1)[C@@H](C)O)C(=O)N1CCC[C@H]1C(=O)N[C@@H](CO)C(=O)N[C@@H](CO)C(=O)N[C@H](C(=O)N1CCC[C@H]1C(=O)N[C@H](C(=O)NCC(=O)N[C@@H](CO)C(=O)N[C@@H](CC(N)=O)C(=O)N[C@H](C(=O)N[C@@H](Cc1ccc(O)cc1)C(N)=O)[C@@H](C)O)C(C)C)[C@@H](C)O [Example 73] (H-K([AEEA-γGlu-C20 diacid])CNTATCATQRLASFLRHSSPNFGAIPSSTPVGSNTY-NH2; disulfide 2-7 (inferred))
Ratio hCT/hAmylin funct. [1, 4]: 11.3 | Ratio hCT/hAmylin funct. [1, 5]: 11.3 | Ratio hCT/hAmylin funct. [1, 6]: 11.3 | solubility at 18 h ([2]; pH 3.0, read-out: Solubility pH 3.0 Concentration): ≥ 200 µM | solubility at 18 h ([2]; pH 4.0, read-out: Solubility pH 4.0 Concentration): ≥ 200 µM | solubility at 18 h ([2]; pH 5.0, read-out: Solubility pH 5.0 Concentration): ≥ 200 µM | solubility at 18 h ([2]; pH 6.0, read-out: Solubility pH 6.0 Concentration): ≥ 200 µM | solubility at 18 h ([2]; pH 6.5, read-out: Solubility pH 6.5 Concentration): ≥ 200 µM | solubility at 18 h ([2]; pH 7.0, read-out: Solubility pH 7.0 Concentration): ≥ 200 µM | solubility at 18 h ([2]; pH 7.5, read-out: Solubility pH 7.5 Concentration): ≥ 200 µM | solubility at 18 h ([2]; pH 8.0, read-out: Solubility pH 8.0 Concentration): 172 µM (≈ 771 µg/mL) | pIC50 [3]: 9.55 | Ratio rCT/rAmylin binding [3, 7]: 177.7 | Ratio rCT/rAmylin binding [3, 8]: 177.7 | Ratio rCT/rAmylin binding [3, 9]: 177.7 | pIC50 (rat calcitonin receptor): 7.30

Ratio hCT/hAmylin funct. [1, 4]: 6.8 | Ratio hCT/hAmylin funct. [1, 5]: 6.8 | Ratio hCT/hAmylin funct. [1, 6]: 6.8 | solubility at 18 h ([2]; bistrispropane buffer, pH 6.5, read-out: Solubility pH 6.5 Concentration): ≥ 200 µM | solubility at 18 h ([2]; bistrispropane buffer, pH 7.5, read-out: Solubility pH 7.5 Concentration): 26 µM (≈ 118 µg/mL) | solubility at 18 h ([2]; bistrispropane buffer, pH 6.0, read-out: Solubility pH 6.0 Concentration): ≥ 200 µM | solubility at 18 h ([2]; bistrispropane buffer, pH 7.0, read-out: Solubility pH 7.0 Concentration): 109 µM (≈ 495 µg/mL) | solubility at 18 h ([2]; bistrispropane buffer, pH 8.0, read-out: Solubility pH 8.0 Concentration): 31 µM (≈ 141 µg/mL) | solubility at 18 h ([2]; glycylglycine buffer, pH 3.0, read-out: Solubility pH 3.0 Concentration): ≥ 200 µM | solubility at 18 h ([2]; glycylglycine buffer, pH 4.0, read-out: Solubility pH 4.0 Concentration): ≥ 200 µM | Solubility pH 6.5 Concentration ([2]; pH 6.5 (Table 9a)): ≧200 μM | pIC50 ([3]; Table 7, binding to rat amylin receptor, read-out: rAmylin-R bind IC50): 7.95 | Ratio rCT/rAmylin binding [3, 7]: 27.7 | Ratio rCT/rAmylin binding [3, 8]: 27.7 | Ratio rCT/rAmylin binding [3, 9]: 27.7 | pIC50 (rat calcitonin receptor): 6.51
SMILES: CC[C@H](C)[C@H](NC(=O)[C@H](C)NC(=O)CNC(=O)[C@H](Cc1ccccc1)NC(=O)[C@H](CC(N)=O)NC(=O)[C@@H]1CCCN1C(=O)[C@H](CO)NC(=O)[C@H](CO)NC(=O)[C@H](Cc1c[nH]cn1)NC(=O)[C@H](CCCNC(=N)N)NC(=O)[C@H](CC(C)C)NC(=O)[C@H](Cc1ccccc1)NC(=O)[C@H](Cc1c[nH]cn1)NC(=O)[C@H](C)NC(=O)[C@H](CC(C)C)NC(=O)[C@H](CCCNC(=N)N)NC(=O)[C@H](CCC(N)=O)NC(=O)[C@@H](NC(=O)[C@H](C)NC(=O)[C@@H]1CSSC[C@H](NC(=O)[C@H](CCCNC(=N)N)NC(=O)CNC(=O)CC[C@H](NC(=O)CCCCCCCCCCCCCCCCCCC(=O)O)C(=O)O)C(=O)N[C@@H](CC(N)=O)C(=O)N[C@@H]([C@@H](C)O)C(=O)N[C@@H](C)C(=O)N[C@@H]([C@@H](C)O)C(=O)N1)[C@@H](C)O)C(=O)N1CCC[C@H]1C(=O)N[C@@H](CO)C(=O)N[C@@H](CO)C(=O)N[C@H](C(=O)N[C@@H](CC(N)=O)C(=O)N[C@H](C(=O)NCC(=O)N[C@@H](Cc1c[nH]cn1)C(=O)N[C@@H](CC(N)=O)C(=O)N[C@H](C(=O)N[C@@H](Cc1ccc(O)cc1)C(N)=O)[C@@H](C)O)C(C)C)[C@@H](C)O [Example 100] ({C20 diacid-γGlu}-GRCNTATCATQRLAHFLRHSSPNFGAIPSSTNVGHNTY-NH2; disulfide 3-8 (inferred))
